Experiments:
[1] = system: locally advanced or metastatic NSCLC; assay: OAK Phase III randomized trial, atezolizumab vs docetaxel, in 2L+ NSCLC, efficacy by tTMB; assay type: in vivo, human; details: for Median OS / Median PFS: 2L+ OAK
Text: Patients were eligible for enrollment in the POPLAR study if they had locally advanced or metastatic (e.g., stage IIIB, stage IV, or recurrent) NSCLC; disease progression during or following treatment with a prior platinum-containing regimen for locally advanced, unresectable/inoperable, or metastatic NSCLC, or disease recurrence within 6 months of treatment with a platinum-based adjuvant/neoadjuvant regimen; measurable disease, as defined by RECIST v1.1; and an ECOG performance status of 0 or 1. Participants were randomized to receive either atezolizumab at a dose of 1200 mg intravenously every three weeks or docetaxel 75 mg per meter square (mg/m^2) intravenously every three weeks. Treatment with atezolizumab could be continued as long as participants were experiencing clinical benefit, i.e., in the absence of unacceptable toxicity or symptomatic deterioration attributed to disease progression. Pre-treatment tumor samples from patients in the Phase III OAK trial (Clinical Trial ID No.: NCT02008227) were also evaluated for tTMB. Patients were eligible for enrollment in the OAK study if they had locally advanced or metastatic (e.g., stage IIIB, stage IV, or recurrent) NSCLC; disease progression during or following treatment with a prior platinum-containing regimen for locally advanced, unresectable/inoperable, or metastatic NSCLC, or disease recurrence within 6 months of treatment with a platinum-based adjuvant/neoadjuvant regimen; measurable disease, as defined by RECIST v1.1; and an ECOG performance status of 0 or 1. Participants were randomized to receive either atezolizumab at a dose of 1200 mg intravenously every three weeks or docetaxel 75 mg per square meter (mg/m^2) intravenously every three weeks. Treatment with atezolizumab could be continued as long as participants were experiencing clinical benefit, i.e., in the absence of unacceptable toxicity or symptomatic deterioration attributed to disease progression.
To identify somatic mutations, tumor samples (e.g., archival tumor samples) were processed as described in Frampton et al. Nat. Biotechnol. 31:1023-31, 2013. Sequencing libraries were constructed to sequence and analyze samples. In addition to standard mutation processing, a mutation load estimation algorithm was applied that, based on the number of somatic mutations and/or rearrangements detected in Table 1 or Table 2, respectively, extrapolates to the exome or the genome as a whole. For purposes of mutation load estimation, all coding short variant alterations, base substitutions, and indels detected in the genes listed in Table 1 and Table 2 were counted. Further, all coding alterations (base substitutions and indels), including synonymous alterations, with the exception of known oncogenic driver mutations, in the genes listed in Table 1 and Table 2 were counted. However, numerous classes of detected alterations were not counted: non-coding alterations; alterations with known (occurring as known somatic alterations in the COSMIC database (Forbes et al. (2014) Nucl. Acids Res. 43:D805-11) and likely (truncations in tumor suppressor genes) functional status; known germline alterations in the dbSNP database (Sherry et al. (2001) Nucleic Acids Res. 29(1):308-11); germline alterations occurring with two or more counts in the ExAC database (Exome Aggregation Consortium (ExAC), Cambridge, Mass.); alterations that are predicted to be germline in the specimen being assessed; and alterations that are predicted to be germline in a cohort of >60,000 clinical specimens. Finally, to calculate the mutation load per megabase, the total number of mutations counted was divided by the coding region target territory of the test, which was 1.110 megabases (Mb) for the current version of the test. The average median coverage value for all samples was 490.
The BEP was defined as patients with at least one tTMB measurement from a baseline tumor sample. […]

[2] = system: metastatic urothelial carcinoma (mUC); assay: IMvigor210 study of atezolizumab in metastatic urothelial carcinoma, efficacy by tTMB; assay type: in vivo, human
Method: To evaluate this idea, the association between tTMB and response to atezolizumab was evaluated in several distinct cancer types. As described in Example 2, high tTMB was associated with response to atezolizumab in 1 L and 2 L+ NSCLC, including at tTMB cutoffs of ≥16 mut/Mb and ≥20 mut/Mb. […] Tissue TMB was associated with improved ORR in 1 L and 2 L mUC patients at the ≥16 mut/Mb and ≥20 mut/Mb cutoffs in the IMvigor210 study (FIG. 17).

[3] = BEP (evaluable for TMB) (n = 174 atezolizumab, 186 docetaxel)
[4] = tTMB score <9 mut/Mb (n = 91 atezolizumab, 87 docetaxel)
[5] = tTMB score <16 mut/Mb (n = 135 atezolizumab, 136 docetaxel)
[6] = tTMB score ≥9 mut/Mb (n = 83 atezolizumab, 99 docetaxel)
[7] = tTMB score ≥16 mut/Mb (n = 39 atezolizumab, 50 docetaxel)

atezolizumab
Median OS [1, 3]: 13.3 months
Median PFS [1, 3]: 2.0 months
Median OS ([1]; ITT (n = 425 per arm)): 13.8 months
Median PFS ([1]; ITT (n = 425 per arm)): 2.0 months
Median OS [1, 4]: 14.2 months
Median PFS [1, 4]: 1.8 months
Median OS [1, 5]: 12.7 months
Median PFS [1, 5]: 1.7 months
Median OS [1, 6]: 13.3 months
Median PFS [1, 6]: 2.5 months
Median OS [1, 7]: 18.7 months
Median PFS [1, 7]: 5.5 months
association of tissue TMB with efficacy ([1]; OAK study): associated with improved efficacy
association of increased tTMB with ORR, PFS and OS ([2]; 1L cisplatin-ineligible mUC, cohort 1 of IMvigor210): associated with increased ORR (FIG. 15A), longer PFS (FIG. 15B), and longer OS (FIG. 15C)
association of increased tTMB with ORR, PFS and OS ([2]; 2L+ mUC, cohort 2 of IMvigor210): associated with increased ORR (FIG. 16A), longer PFS (FIG. 16B), and longer OS (FIG. 16C)
ORR ([2]; IMvigor210 1L cisplatin-ineligible and 2L+ mUC, 6 patients both TMB-high (≥16 mut/Mb) and MSI-high): 83%

Reference: patent publication US11300570B2, “Therapeutic and diagnostic methods for cancer” (Genentech, Inc., priority 2016, dated 2022)
